Test results reported in ChEMBL document CHEMBL1201862, “PubChem BioAssay data set” (2004).
Calls of active or inactive are those of the source.

What was measured:
[1] = target: Glyceraldehyde-3-phosphate dehydrogenase (Homo sapiens, UniProt P04406)
Bcl-2-related protein A1 [2] = target: T1, Bcl-2-related protein A1 (Mus musculus, UniProt Q07440); experiment: Bfl-1 inhibitors blocking BH3 peptide binding, confirmation, biochemical, TR-FRET, mouse Bfl-1 (AID 621);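 note: TR-FRET binding of GST-Bfl-1 to FITC-labelled Bid peptide via terbium antibody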
T1 sequence (Q07440 whole entry): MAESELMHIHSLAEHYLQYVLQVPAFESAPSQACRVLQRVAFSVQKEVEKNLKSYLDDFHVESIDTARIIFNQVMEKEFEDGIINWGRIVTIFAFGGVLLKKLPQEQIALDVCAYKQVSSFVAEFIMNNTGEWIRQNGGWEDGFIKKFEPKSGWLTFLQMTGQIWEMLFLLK

Bcl-2-related protein A1 [3] = target: T1, Bcl-2-related protein A1; experiment: Bfl-1 binding inhibitors, SAR follow-up, biochemical, fluorescence polarization (AID 1070)
[4] = target: Eukaryotic translation initiation factor 4H (Homo sapiens, UniProt Q15056); experiment: human eIF4H binding inhibitors, primary screen, translation initiation inhibitor project, biochemical, uHTS, fluorescence polarization (AID 2012)
[5] = target: Polyadenylate-binding protein 1 (Homo sapiens, UniProt P11940); experiment: PABP poly(A) RNA binding inhibitors, primary screen, biochemical, fluorescence polarization, uHTS (AID 2014)
Sequence of Polyadenylate-binding protein 1 (P11940 whole entry): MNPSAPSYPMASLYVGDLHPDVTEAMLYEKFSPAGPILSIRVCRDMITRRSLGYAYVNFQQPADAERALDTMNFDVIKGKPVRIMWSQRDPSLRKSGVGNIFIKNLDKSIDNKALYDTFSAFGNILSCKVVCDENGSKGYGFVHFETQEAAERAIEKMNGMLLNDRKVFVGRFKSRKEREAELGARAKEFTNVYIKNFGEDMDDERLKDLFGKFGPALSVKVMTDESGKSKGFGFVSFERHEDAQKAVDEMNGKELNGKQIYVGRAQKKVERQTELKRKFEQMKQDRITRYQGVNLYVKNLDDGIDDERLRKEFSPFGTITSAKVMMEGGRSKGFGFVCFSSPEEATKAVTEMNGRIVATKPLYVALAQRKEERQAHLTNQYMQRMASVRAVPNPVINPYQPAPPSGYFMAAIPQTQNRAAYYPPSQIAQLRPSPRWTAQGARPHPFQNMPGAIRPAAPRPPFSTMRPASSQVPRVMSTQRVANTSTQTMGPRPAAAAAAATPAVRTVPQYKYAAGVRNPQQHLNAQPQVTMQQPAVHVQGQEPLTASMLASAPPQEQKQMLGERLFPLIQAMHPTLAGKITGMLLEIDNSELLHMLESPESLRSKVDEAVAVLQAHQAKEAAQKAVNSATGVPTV

[6] = target: DNA dC->dU-editing enzyme APOBEC-3A (Homo sapiens, UniProt P31941); experiment: Dose Response confirmation of small molecule APOBEC3A DNA Deaminase Inhibitors via a fluorescence-based single-stranded DNA deaminase assay. [Related pubchem assays (depositor defined):AID493011, AID493024]; format: functional
Sequence of DNA dC->dU-editing enzyme APOBEC-3A (P31941 whole entry): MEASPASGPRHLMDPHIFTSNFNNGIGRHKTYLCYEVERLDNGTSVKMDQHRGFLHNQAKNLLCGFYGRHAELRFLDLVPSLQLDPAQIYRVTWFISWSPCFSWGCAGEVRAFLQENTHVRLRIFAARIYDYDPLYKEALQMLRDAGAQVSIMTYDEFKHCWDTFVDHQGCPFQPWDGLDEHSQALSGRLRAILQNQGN

[7] = target: DNA dC->dU-editing enzyme APOBEC-3G (Homo sapiens, UniProt Q9HC16); format: functional;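 note: Dose-response counterscreen measuring inhibition of APOBEC3G DNA deaminase activity, run while confirming APOBEC3A inhibitors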
Estrogen receptor = target: T2, Estrogen receptor (Homo sapiens, UniProt P03372);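 note: potency for inhibiting coactivator peptide recruitment to the receptor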
T2 sequence (P03372 whole entry): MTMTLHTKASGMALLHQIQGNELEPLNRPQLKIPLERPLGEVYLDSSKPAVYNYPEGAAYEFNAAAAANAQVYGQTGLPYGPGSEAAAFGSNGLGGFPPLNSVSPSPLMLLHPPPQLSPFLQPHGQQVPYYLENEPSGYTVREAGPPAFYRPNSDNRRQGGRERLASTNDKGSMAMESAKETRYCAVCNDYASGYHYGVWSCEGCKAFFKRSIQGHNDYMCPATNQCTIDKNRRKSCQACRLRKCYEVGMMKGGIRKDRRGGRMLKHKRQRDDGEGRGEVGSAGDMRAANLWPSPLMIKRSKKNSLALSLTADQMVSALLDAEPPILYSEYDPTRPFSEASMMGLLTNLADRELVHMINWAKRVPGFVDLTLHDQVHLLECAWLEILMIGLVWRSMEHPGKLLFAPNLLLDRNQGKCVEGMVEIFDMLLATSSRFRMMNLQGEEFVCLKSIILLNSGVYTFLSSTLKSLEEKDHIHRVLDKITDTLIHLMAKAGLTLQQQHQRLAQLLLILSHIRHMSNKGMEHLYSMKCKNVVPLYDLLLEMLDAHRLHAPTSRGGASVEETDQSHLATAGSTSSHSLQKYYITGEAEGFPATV

[8] = target: Voltage-dependent T-type calcium channel subunit alpha-1H (Homo sapiens, UniProt O95180); format: functional;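 note: channel activity triggered by adding a high calcium stimulation buffer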
[9] = HEp-2 cell cytotoxicity, dose response, cytotoxicity control for RSV inhibitor project, HTS (AID 2410); format: functional; details: human respiratory syncytial virus
cells [10] = experiment: cells
[11] = inhibitors of intracellular T. cruzi replication, confirmation, NIH3T3 host cells, beta-gal luminescence (AID 2044); format: functional, cell-based;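 note: intracellular parasites grown in NIH/3T3 mouse fibroblasts as host cells; luminescent beta-galactosidase reporter signal from transgenic T. cruzi replicating inside host cells; inhibitors lower the luminescence signal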
[12] = cytotoxicity toward NIH3T3 fibroblasts, dose response, counter-screen, cell-based, ATP luminescence, mouse fibroblasts (AID 2010); format: functional;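 note: cells exposed to compound for about 90 hours before reading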
[13] = target: T3, Short transient receptor potential channel 4 (Mus musculus, UniProt Q9QUQ5); experiment: mouse TRPC4 channel activators, dose response, cell-based, HEK293 TRPC4/mu-opioid, Fluo-4 calcium (AID 434937); format: functional
T3 sequence (Q9QUQ5 whole entry): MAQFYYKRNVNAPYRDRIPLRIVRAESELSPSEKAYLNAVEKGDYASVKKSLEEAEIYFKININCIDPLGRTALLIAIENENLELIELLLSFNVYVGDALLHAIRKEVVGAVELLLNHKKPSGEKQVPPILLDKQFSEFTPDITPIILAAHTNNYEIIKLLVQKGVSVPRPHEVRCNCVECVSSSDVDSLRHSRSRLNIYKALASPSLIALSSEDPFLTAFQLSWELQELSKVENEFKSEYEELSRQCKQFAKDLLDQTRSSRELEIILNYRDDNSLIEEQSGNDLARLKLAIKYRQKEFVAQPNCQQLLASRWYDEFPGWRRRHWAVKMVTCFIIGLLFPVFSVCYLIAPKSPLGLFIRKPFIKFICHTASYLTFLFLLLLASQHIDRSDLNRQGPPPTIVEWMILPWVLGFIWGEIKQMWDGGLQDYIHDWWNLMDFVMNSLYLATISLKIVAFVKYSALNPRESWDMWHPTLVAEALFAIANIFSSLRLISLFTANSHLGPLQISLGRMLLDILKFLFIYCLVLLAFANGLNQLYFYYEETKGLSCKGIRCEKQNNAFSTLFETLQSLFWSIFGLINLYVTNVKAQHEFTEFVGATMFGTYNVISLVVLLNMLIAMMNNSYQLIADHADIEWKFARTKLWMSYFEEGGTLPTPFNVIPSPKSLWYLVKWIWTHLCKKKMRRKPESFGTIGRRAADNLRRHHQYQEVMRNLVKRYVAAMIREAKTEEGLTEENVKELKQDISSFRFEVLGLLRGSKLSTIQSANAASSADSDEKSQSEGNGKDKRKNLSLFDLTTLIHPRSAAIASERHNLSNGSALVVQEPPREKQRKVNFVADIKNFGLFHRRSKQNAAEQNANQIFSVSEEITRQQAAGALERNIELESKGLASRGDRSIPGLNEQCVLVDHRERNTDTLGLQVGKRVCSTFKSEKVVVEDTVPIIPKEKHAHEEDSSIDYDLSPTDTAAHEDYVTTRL

cells [14] = experiment: cells; remark: listed apart in the source
[15] = target: T3, Short transient receptor potential channel 4; experiment: mouse TRPC4 channel inhibitors, dose response, cell-based, HEK293 TRPC4/mu-opioid, Fluo-4 calcium (AID 434942); format: functional;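 note: potency of inhibitors blocking the TRPC4 calcium response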
[16] = THP-1 cell cytotoxicity, dose response, cytotoxicity control for non-replicating M. tuberculosis project (AID 489025); format: functional
[17] = HepG2 cell cytotoxicity, dose response, cytotoxicity control for non-replicating M. tuberculosis project (AID 489018); format: functional; details: Mycobacterium tuberculosis
[18] = Vero E6 cell cytotoxicity, dose response, cytotoxicity control for non-replicating M. tuberculosis project, secondary assay (AID 492998); format: functional, VeroE6; details: Vero C1008
cells [19] = format: functional
[20] = target: T4, Corticotropin-releasing factor receptor 2/Corticotropin-releasing factor-binding protein (Homo sapiens, UniProt P24387+Q13324); experiment: activators of CRF receptor 2 with binding protein – uHTS hits, confirmation (AID 602473); format: functional; details: read-out: EC50_Mean
T4 sequence (Q13324 whole entry): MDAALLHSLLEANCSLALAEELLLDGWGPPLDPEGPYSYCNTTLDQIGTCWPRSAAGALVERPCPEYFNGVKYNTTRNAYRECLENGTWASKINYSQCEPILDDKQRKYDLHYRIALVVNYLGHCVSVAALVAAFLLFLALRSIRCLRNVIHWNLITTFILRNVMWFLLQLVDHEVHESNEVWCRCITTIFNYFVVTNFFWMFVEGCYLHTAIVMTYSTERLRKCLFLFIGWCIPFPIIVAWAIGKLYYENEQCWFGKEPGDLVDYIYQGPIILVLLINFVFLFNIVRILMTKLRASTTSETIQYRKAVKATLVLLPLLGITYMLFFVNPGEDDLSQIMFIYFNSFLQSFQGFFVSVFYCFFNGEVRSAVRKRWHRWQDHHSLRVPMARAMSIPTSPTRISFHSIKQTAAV
T4 sequence (P24387 whole entry): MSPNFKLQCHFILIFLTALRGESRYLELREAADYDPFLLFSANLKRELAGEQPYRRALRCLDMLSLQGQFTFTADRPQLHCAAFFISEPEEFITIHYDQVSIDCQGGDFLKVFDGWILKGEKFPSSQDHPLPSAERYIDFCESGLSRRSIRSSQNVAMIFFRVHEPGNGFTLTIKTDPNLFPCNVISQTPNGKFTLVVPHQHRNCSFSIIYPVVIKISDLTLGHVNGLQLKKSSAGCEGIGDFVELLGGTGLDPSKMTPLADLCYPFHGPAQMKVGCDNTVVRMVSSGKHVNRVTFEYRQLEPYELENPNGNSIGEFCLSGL

[21] = target: Eukaryotic translation initiation factor 4E (Mus musculus, UniProt P63073); experiment: eIF4E–eIF4G protein interaction inhibitors, dose response, biochemical, TR-FRET (AID 855); format: functional;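 note: potency for disrupting eIF4E binding to eIF4GI seen as loss of FRET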
Sequence of Eukaryotic translation initiation factor 4E (P63073 whole entry): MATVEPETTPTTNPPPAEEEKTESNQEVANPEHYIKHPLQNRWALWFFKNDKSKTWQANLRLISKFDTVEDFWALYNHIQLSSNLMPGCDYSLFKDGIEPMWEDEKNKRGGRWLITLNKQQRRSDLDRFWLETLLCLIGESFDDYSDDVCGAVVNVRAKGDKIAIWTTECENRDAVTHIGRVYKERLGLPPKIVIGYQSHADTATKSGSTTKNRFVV

[22] = target: T5, Voltage-gated N-type calcium channel alpha-1B subunit/Amyloid beta A4 precursor protein-binding family A member 1 (Homo sapiens, UniProt Q00975+Q02410); format: protein assay
T5 sequence (Q00975 whole entry): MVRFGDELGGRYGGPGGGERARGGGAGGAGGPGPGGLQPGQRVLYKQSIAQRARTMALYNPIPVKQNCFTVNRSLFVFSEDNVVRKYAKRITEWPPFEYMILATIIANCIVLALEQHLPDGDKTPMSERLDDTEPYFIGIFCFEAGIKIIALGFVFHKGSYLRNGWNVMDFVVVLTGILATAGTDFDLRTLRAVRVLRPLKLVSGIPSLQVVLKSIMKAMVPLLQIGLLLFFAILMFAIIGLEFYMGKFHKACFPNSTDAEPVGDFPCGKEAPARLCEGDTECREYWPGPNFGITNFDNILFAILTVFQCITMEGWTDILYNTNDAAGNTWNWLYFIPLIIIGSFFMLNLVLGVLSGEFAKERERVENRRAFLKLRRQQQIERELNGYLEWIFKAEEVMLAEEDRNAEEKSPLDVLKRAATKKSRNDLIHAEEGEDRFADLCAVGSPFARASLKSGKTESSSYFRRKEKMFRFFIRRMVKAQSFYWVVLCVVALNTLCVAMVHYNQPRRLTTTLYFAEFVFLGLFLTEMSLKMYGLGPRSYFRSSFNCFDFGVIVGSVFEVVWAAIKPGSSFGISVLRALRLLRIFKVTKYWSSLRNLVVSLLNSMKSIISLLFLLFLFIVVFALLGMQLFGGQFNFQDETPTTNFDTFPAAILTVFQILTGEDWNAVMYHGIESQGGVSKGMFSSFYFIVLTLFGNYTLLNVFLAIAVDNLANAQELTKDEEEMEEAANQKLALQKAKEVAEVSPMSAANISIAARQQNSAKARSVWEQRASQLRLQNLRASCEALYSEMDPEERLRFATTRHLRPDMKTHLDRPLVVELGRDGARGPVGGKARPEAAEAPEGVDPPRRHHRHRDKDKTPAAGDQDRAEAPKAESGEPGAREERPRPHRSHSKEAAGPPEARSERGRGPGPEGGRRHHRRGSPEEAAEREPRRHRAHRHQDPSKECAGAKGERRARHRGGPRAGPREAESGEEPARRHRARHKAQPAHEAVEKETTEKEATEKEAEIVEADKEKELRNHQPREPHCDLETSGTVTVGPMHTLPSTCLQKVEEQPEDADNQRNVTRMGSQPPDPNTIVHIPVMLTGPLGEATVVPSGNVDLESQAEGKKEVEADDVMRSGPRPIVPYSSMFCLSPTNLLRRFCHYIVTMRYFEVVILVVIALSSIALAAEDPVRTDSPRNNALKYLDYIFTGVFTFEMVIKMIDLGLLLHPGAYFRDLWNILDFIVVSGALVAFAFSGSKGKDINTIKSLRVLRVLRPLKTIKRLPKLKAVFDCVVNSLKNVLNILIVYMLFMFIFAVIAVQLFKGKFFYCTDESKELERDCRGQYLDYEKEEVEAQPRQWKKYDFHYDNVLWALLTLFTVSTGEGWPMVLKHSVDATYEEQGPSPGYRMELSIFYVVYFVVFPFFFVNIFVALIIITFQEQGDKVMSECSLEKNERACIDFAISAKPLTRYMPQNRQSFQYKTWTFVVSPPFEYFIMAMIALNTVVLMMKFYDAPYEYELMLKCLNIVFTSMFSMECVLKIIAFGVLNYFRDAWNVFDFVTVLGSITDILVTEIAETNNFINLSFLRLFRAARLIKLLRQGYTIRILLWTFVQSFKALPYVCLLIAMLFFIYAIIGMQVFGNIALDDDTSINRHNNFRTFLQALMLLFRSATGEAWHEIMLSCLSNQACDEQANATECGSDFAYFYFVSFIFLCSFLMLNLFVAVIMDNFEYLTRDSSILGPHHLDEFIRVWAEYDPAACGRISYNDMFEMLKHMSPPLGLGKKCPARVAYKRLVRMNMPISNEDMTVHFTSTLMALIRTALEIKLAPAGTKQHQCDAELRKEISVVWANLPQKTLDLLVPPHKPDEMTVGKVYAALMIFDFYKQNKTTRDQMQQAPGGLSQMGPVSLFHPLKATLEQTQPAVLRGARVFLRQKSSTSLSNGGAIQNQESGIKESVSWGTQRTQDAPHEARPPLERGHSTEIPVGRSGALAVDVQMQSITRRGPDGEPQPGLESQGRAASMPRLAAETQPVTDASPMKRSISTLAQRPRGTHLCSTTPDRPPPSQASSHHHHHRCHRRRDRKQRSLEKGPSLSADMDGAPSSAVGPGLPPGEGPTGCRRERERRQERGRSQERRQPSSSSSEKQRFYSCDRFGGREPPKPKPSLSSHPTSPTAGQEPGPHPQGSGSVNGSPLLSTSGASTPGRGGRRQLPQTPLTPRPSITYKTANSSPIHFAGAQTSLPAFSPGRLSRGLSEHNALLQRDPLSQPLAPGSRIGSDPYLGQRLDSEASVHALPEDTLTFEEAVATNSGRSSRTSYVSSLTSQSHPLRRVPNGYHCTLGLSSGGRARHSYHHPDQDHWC
T5 sequence (Q02410 whole entry): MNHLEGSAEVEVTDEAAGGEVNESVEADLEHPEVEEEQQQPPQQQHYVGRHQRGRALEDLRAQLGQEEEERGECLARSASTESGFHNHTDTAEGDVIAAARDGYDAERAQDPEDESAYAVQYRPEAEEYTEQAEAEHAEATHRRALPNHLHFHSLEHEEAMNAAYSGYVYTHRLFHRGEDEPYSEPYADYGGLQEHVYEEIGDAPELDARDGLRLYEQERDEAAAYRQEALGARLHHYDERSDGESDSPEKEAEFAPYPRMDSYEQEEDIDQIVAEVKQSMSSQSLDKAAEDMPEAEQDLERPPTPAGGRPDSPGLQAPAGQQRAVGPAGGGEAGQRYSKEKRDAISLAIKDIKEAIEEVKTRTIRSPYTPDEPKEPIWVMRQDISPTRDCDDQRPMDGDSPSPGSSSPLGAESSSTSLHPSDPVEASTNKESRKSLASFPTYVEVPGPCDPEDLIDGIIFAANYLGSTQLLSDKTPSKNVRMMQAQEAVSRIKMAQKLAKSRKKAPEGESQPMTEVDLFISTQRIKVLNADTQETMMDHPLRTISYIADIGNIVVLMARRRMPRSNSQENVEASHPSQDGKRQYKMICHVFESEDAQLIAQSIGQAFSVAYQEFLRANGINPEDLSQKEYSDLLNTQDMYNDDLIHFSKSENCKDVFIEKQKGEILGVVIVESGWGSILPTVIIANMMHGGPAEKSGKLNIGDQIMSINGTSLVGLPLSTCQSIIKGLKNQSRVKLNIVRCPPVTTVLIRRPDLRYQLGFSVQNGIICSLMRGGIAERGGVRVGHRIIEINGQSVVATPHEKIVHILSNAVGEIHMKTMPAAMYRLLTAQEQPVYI

[23] = target: T5, Voltage-gated N-type calcium channel alpha-1B subunit/Amyloid beta A4 precursor protein-binding family A member 1; format: protein assay; remark: listed apart in the source
[24] = microbe, parasite or virus in culture; format: functional; details: Mycobacterium tuberculosis
[25] = Luminescence Cell-Based Dose Retest to Confirm Inhibitors of Cancer Stem Cells. [Related pubchem assays (depositor defined):AID2717, AID2721]; format: functional; details: Homo sapiens
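Throughout, for AC50: cells exposed to compound for roughly 70 hours or longer before luminescence read.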

Sequence of Glyceraldehyde-3-phosphate dehydrogenase (P04406 whole entry): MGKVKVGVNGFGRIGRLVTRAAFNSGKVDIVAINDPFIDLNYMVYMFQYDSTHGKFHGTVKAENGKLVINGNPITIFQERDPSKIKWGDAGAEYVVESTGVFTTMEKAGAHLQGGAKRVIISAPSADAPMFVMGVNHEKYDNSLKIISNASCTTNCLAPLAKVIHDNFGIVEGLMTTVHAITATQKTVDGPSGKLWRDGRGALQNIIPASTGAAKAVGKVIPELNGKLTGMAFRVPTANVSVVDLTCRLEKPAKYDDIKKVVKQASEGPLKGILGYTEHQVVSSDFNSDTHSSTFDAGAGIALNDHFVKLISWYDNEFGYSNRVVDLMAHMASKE

In the case of `CN(C)C1=C(Cl)C(=O)N(c2ccc(Cl)c(Cl)c2)C1=O`, the IC50 [1] is reported as > 100 µM (not active), the IC50 (Bcl-2-related protein A1 [2]) is reported as 0.54 µM (active) and the IC50 (Bcl-2-related protein A1 [3]) is reported as 0.419 µM (active).
For `CN1CCN(C2=C(Cl)C(=O)N(c3ccccc3Cl)C2=O)CC1`, the IC50 [1] was > 100 µM (not active), the IC50 (Bcl-2-related protein A1 [2]) was 1.45 µM (active) and the IC50 (Bcl-2-related protein A1 [3]) was 2.16 µM (active).
With `C=CCNC1=N[C@@H](c2cccc(C(F)(F)F)c2)C(C(=O)OC)=C(C)N1CC` the IC50 [4] was > 100 µM (inactive), the IC50 [5] was 9.23 µM (active) and the IC50 [6] was 3.56 µM (active). The IC50 [7] was 3.81 µM (active).
With `Cc1cc(NC(=O)CSc2cn(CCNC(=O)c3ccc(Cl)cc3)c3ccccc23)no1` the IC50 (Estrogen receptor) was 24.9 µM (active) and the EC50 [8] was 0.13 µM (active).
For `COc1cccc(NC(=O)CSc2nc3ccccc3nc2N2CCCC2)c1`, the CC50 [9] was 17.2 µM (active) and the IC50 (cells [10]) was 30.5 µM (active).
For `COc1ccccc1/C=C/CN1CCCC(CCC(=O)NCc2ccccc2F)C1` (stereo not given), the EC50 [11] was < 0.1 µM (active), the EC50 [12] was > 60 µM (not active) and the EC50 [13] was 0.473 µM (active). The EC50 (cells [14]) was 0.025 µM (active).
With `CCOC(=O)c1ccc2c(c1)[n+](CCO)c(C)n2CC` the IC50 [4] was > 100 µM (inactive) and the IC50 [5] was 3.29 µM (active).
With `O=C(CSc1nc2ccccc2c(=O)n1-c1ccccc1)NCC1CCCO1` (stereo not given) the IC50 [4] was > 100 µM (inactive) and the IC50 [5] was 6.35 µM (active).
In the case of `Clc1ccc(C[n+]2cc(-c3ccccc3)n3c2CCC3)cc1Cl`, the EC50 [11] is reported as < 0.1 µM (active), the EC50 [12] is reported as > 30 µM (not active) and the EC50 [15] is reported as 3.76 µM (active). For the same compound, the EC50 (cells [14]) was 0.004 µM (active).
In the case of `CCCN(CCC)S(=O)(=O)c1ccc(C(=O)Nc2nnc(-c3cccc(OC)c3)o2)cc1`, the CC50 [16] is reported as 1.49 µM (active), the CC50 [17] is reported as 12.4 µM (active) and the CC50 [18] is reported as 3.51 µM (active). The IC50 (cells [19]) was 15.1 µM (active) and the EC50 [20] was 5.45 µM (active).
For `Cc1ccc(OCCn2c(C3CC(=O)N(Cc4ccccc4)C3)nc3ccccc32)cc1` (stereo not given), the CC50 [9] was 25.4 µM (active) and the IC50 (cells [10]) was 3.14 µM (active).
For `CCNc1ccc(C(=O)OCC(=O)NC(C)c2ccccc2)cc1[N+](=O)[O-]` (stereo not given), the IC50 [21] was > 64 µM (inactive).
With `CC(Oc1ccc(Cl)cc1Cl)C(=O)NNC(=O)C(=O)N1CCCCC1` (stereo not given) the CC50 [9] was > 50 µM (active) and the IC50 (cells [10]) was 40.6 µM (active).
For `NC(=O)c1ccc2c(O)c(O)c(-c3cc(Cl)c(N)c(Cl)c3)nc2c1`, the IC50 [22] was 14.1 µM (active) and the IC50 [23] was 28.9 µM (active).
With `O=C(NC1CCCCCCC1)C1CCN(S(=O)(=O)N2CCCC2)CC1` the IC50 [21] was > 64 µM (inactive).
In the case of `O=C1C(Cl)=C(N2CCOCC2)C(=O)N1c1cccc([N+](=O)[O-])c1`, the IC50 [1] is reported as > 100 µM (not active), the IC50 (Bcl-2-related protein A1 [2]) is reported as 8.21 µM (active) and the IC50 (Bcl-2-related protein A1 [3]) is reported as 9.68 µM (active).
In the case of `C=CCn1c(S)nnc1-c1ccoc1`, the IC50 [21] is reported as > 64 µM (inactive).
For `CC(=O)c1cccc(NC(=O)Cc2cccs2)c1`, the IC50 (Estrogen receptor) was 18.5 µM (active).
With `COc1cc(CNCCc2ccccc2)cc(Cl)c1OCc1ccccc1` the CC50 [24] was 22.9 µM (active), the CC50 [16] was 13.7 µM (active) and the AC50 [25] was 5.32 µM (active). The CC50 [17] was 15.5 µM (active), the CC50 [18] was 17.4 µM (active) and the IC50 (cells [19]) was 13.9 µM (active).
